Data published in patent publication US8586973B2, “Host material for light-emitting diodes” (Solvay SA, priority 2008, dated 2013).

Assay: Solubility tests in organic solvents
Assay type: physicochemical
Settings: 20° C.; for Solubility S in chlorobenzene / Solubility S in toluene: 1 ml solvent, magnetic stirring
Method: The solubility tests were carried out at 20° C. by adding 1 ml of solvent to the suitable amount of compound powder in a sampling vial and under magnetic stirring.

Compound | Solubility S in chlorobenzene (molar) [mM] | Solubility S in chlorobenzene [mg/mL] | Solubility S in toluene (molar) [mM] | Solubility S in toluene [mg/mL]
CC(C)[Si](c1ccc2c(c1)c1cc([Si](C(C)C)(C(C)C)C(C)C)ccc1n2-c1ccc(C2(c3ccc(-n4c5ccc([Si](C(C)C)(C(C)C)C(C)C)cc5c5cc([Si](C(C)C)(C(C)C)C(C)C)ccc54)cc3)c3ccccc3-c3ccccc32)cc1)(C(C)C)C(C)C [Compound IV, 9,9-Bis-(4-phenyl-3,6,3″,6″-tetrakis-triisopropylsilanyl-9′H-carbazole)-9H-fluorene] | > 42 | > 54 | > 31 | > 39
CC(C)[Si](c1ccc2c(c1)c1ccccc1n2-c1ccc(C2(c3ccc(-n4c5ccccc5c5cc([Si](C(C)C)(C(C)C)C(C)C)ccc54)cc3)c3ccccc3-c3ccccc32)cc1)(C(C)C)C(C)C [Compound IX, 9,9-Bis-[4-(3-Triisopropylsilylcarbazol)-phenyl]-fluorene] | > 59 | > 57 | > 49 | > 47
COc1ccc(-n2c3ccc(-n4c5ccc([Si](C(C)C)(C(C)C)C(C)C)cc5c5cc([Si](C(C)C)(C(C)C)C(C)C)ccc54)cc3c3cc(-n4c5ccc([Si](C(C)C)(C(C)C)C(C)C)cc5c5cc([Si](C(C)C)(C(C)C)C(C)C)ccc54)ccc32)cc1 [Compound VI, 9′-(4-Methoxy-phenyl)-3,6,3″,6″-tetrakis-triisopropylsilanyl-9′-[9,3′;6′,9″]tercarbazole] | > 45 | > 55 |  | 
COc1ccc(-n2c3ccc(-n4c5ccccc5c5cc([Si](C(C)C)(C(C)C)C(C)C)ccc54)cc3c3cc(-n4c5ccccc5c5cc([Si](C(C)C)(C(C)C)C(C)C)ccc54)ccc32)cc1 [Compound VII, 9-N-(4-Methoxy-phenyl)-3,6-Bis-[(3-Triisopropylsilylcarbazolyl)]carbazole] | > 62 | > 56 |  | 
CC(C)[Si](c1ccc2c(c1)c1ccccc1n2-c1ccc2c(c1)c1cc(-n3c4ccccc4c4cc([Si](C(C)C)(C(C)C)C(C)C)ccc43)ccc1n2-c1ccc(F)cc1)(C(C)C)C(C)C [Compound VIII, 9-N-(4-Fluoro-phenyl)-3,6-Bis-[(3-Triisopropylsilylcarbazolyl)]carbazole] | > 57 | > 51 |  | 
